Like-named read-outs stand apart in the source and are kept apart here.
Legend:
[1] = system: fat cells in rat epididymis adipose tissue; experiment: Antilipolytic activity: glycerol released from IL-1β-treated rat fat cells; assay type: cell-based; settings: read-out: antilipolytic concentration IC50
Protocol: In accordance with the method of Green et al. [Endocrinology, 134, 2581-2588 (1994)], the antilipolytic activity of the compound of the present invention was evaluated by quantitating the glycerol released from fat cells in rat epididymis adipose tissue.
Thus, the rat epididymis adipose tissue was isolated, cut into pieces with a pair of scissors, and digested into fat cells by agitating in collagenase-containing phosphate buffer for 1 hour. To a culture solution containing fat cells was added 10 ng/ml of IL-1β (manufactured by Pharmingen, PM-19101V). Then, in treatment groups, solutions of compound (2) in N,N-dimethylformamide at graded concentrations were respectively added. After 24 hours, the supernatant was recovered and the glycerol therein was quantitated with an assay kit (manufactured by Sigma, 337-A). The amount of released glycerol in each group treated with compound (2) relative to that in the control group was determined to find the inhibition rate and the 50% inhibition concentration IC50 of the compound was calculated. The antilipolytic concentration IC50 value of compound (2) was 4 nM.
The antilipolytic activity of indomethacin was evaluated by the same method as in Test Example 1. The antilipolytic concentration IC50 value of indomethacin was not less than 10 mM.

[2] = system: tumor-bearing mice (mouse colon cancer cell line Colon 26); experiment: Weight loss inhibitory activity in tumor-bearing mice (Colon 26 cachexia model); assay type: in vivo; settings: CDF1 mice
Protocol: Using the mouse colon cancer cell line Colon 26 (Tanaka et al., Cancer Research, 50, 4528-4532 (1990)), which is a system known to be high in the reproducibility of cancer cachectic symptoms, the inhibitory effect of the compound of the present invention on lipolysis and body weight loss was evaluated.
Thus, 1×10^6 Colon 26 cells were transplanted sub-dermaly in 4-week-old CDF1 mice. On day 14 after transplantation, the mice were divided into groups according to tumor size. A 5% (w/v) gum arabic suspension containing compound (2) was administered orally in a dose of 1.0 mg/kg to one group of mice and, as a control, a 5% (w/v) gum arabic suspension was similarly administered to another group, once daily for 7 days in each case. An additional group of mice was not transplanted with Colon 26 cells (normal group). On days 14, 18 and 21 after transplantation, the mice were weighed. On day 22 after transplantation, each mouse was autopsied and the epididymis adipose tissue was isolated and weighed. Changes in mouse body weight and adipose tissue weight are shown in Table 1 and Table 2, respectively.

Cc1oc(-c2ccccc2)nc1C(O)COc1ccc(CC2SC(=O)NC2=O)cc1 (centres unmarked) [compound (2), 5-[4-[2-hydroxy-2-(5-methyl-2-phenyl-4-oxazolyl)ethoxy]benzyl]-2,4-thiazolidinedione]
IC50 ([1]; inhibition of glycerol release, 10 ng/ml IL-1β, 24 hours): 0.004 µM | body weight of tumor-bearing mice, 21st Day after transplantation ([2]; 1.0 mg/kg orally once daily for 7 days from day 14): 25.6 g | body weight of tumor-bearing mice, 18th Day after transplantation ([2]; 1.0 mg/kg orally once daily from day 14): 26.3 g | body weight of tumor-bearing mice, 14th Day after transplantation ([2]; day 14 (grouping, start of dosing), 1.0 mg/kg orally once daily for 7 days): 26.3 g

COc1ccc2c(c1)c(CC(=O)O)c(C)n2C(=O)c1ccc(Cl)cc1 [indomethacin, reference compound]
IC50 ([1]; same method as Test Example 1 (glycerol release, IL-1β, 24 hours)): ≥ 10000 µM
